{"source": "paper PMC10819746", "about": "“Investigating Novel IspE Inhibitors of the MEP Pathway in Mycobacterium” (Microorganisms, 2023)", "molecular_target": "T1, IspE (4-diphosphocytidyl-2-c-methyl-d-erythritol kinase; Rv1011) (Mycobacterium tuberculosis, UniProt P9WKG7)", "T1 sequence (P9WKG7 2-318)": "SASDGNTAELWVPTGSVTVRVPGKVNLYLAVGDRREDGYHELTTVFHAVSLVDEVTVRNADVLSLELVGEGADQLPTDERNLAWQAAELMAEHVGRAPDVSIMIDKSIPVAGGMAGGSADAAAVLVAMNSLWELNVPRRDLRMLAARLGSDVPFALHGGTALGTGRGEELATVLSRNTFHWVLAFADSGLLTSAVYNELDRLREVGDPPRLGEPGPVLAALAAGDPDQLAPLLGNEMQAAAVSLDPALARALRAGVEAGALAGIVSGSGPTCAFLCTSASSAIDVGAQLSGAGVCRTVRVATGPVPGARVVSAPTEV", "test": "ADP Quest HS coupled fluorescent kinase assay (resorufin) with Rv1011, ATP and CDP-ME", "assay_type": "biochemical"}
{"smiles": "Cc1ccc([C@H]2c3c([nH]n(-c4ccccc4)c3=O)NC3=C[C@H](C)CC(=O)[C@H]32)cc1", "note": "[A1]", "values": [{"measurement": "IC50", "value": 15.6, "unit": "µM"}]}
